Experimental data as given in patent US20100311726A1, “REDUCTION OF BETA-AMYLOID LEVELS BY TREATMENT WITH THE SMALL MOLECULE DIFFERENTIATION-INDUCING FACTOR” (priority 2007, published 2010).

Tests used:
[1] = tested on: APP phosphorylation on residue T668; experiment: APP T668 phosphorylation by western blot; assay type: cell-based, human; settings: CHO-7W and CHO-CAB; DAPT alone, or DAPT with DIF-1 (30 μM)
Description: Next, whether or not DIF-1 treatment affected the degree of T668 phosphorylation was examined by western blot (FIG. 11). Briefly, effects of DIF-1 on APP T668 phosphorylation were compared between vehicle-treated control and 250 nM of DAPT identically in each cell line. Western analysis of 15 μg of total protein was probed overnight at 4° C. with anti-APP Cterminal antibody (C66-676-695) (1:5000) and then detected on film using ECL and HRP-conjugated secondary antibodies (1:5000). […] This band has also been detected in other CHO lines where APP expression is high (˜3 fold) and by different C-terminal APP antibodies (Ab8717-676-695; except 6E10 which recognizes the N-terminal residues 1-17 of the Aβ sequence. For FIG. 11A, cells were treated with DAPT, and DAPT+DIF then were probed with anti-APP antibody (C66). For FIG. 11B, CHO-7W cells were treated with DAPT, and DAPT+DIF, and then probed with polyclonal anti-P668 APP antibody (1:1000) overnight at 4° C. in 5% BSA. After washing, cells were probed with a rabbit HRP-conjugated secondary antibody (1:5000) in BSA for 1 hour at room temperature and signals were detected on film using ECL. FIG. 11C represents CHO-CAB cells and FIG. 11D represents H4 cells expressing APP^SW.

Dictyostelium discoideum = settings: Masento et al., 1988; cited from earlier work
Aβ42 = experiment: Secreted Aβ42 sandwich ELISA of conditioned media; assay type: cell-based, human
Description: The levels of secreted Aβ from CHO-7W cells stably overexpressing APP^751 and CHO-CAB cells that overexpress APP^751 and human BACE1 was quantified by ELISA and viewed by western blot using the monoclonal anti-APP antibody (6E10) that recognizes residues 1-17 of Aβ. Cells (5×10^5) were deposited into 6-well tissue culture dishes in triplicate and allowed to settle and grow for 24 hours. At this time, the media was aspirated and the cells were washed 2× in warm PBS. Fresh media (2 mL) and media supplemented with vehicle or DIF-1 was added to each well. […] Since DIF-1 exerts a cytostatic effect, the cell number was counted for all treatments upon removal of the conditioned media and used to normalize the levels of Aβ. […] The concentration of Aβ40 and Aβ42 was subsequently detected in triplicate using the β-Amyloid 1-40 or 1-42 Colorimetric ELISA kit (Biosource International, Inc.) according to the manufacturer's instructions.
We then looked at what effect this had on the levels of secreted soluble APP and Aβ production. […] The conditioned media was analyzed using anti-APP antibody 6E10 in order to detect total βP levels and sαAPP levels since it recognizes the amino acids 1-17 of Aβ and thus cannot detect sβAPP. […] The blots were analyzed using a phosphorimager. […]

## CCCCCC(=O)c1c(O)c(Cl)c(OC)c(Cl)c1O [DIF-1, 1-[3,5-dichloro-2,6-dihydroxy-4-methoxyphenyl]-1-hexanone]
[1]
  amount of T668 phosphorylated APP CTFs: large reduction in the amount of T668 phosphorylated APP CTFs
Dictyostelium discoideum
  absolute specific activity in stalk-cell differentiation: sub-nanomolar range
Aβ42; CHO-7W, 30 μM overnight
  reduction of secreted Aβ42: 63.9±7.15%
Aβ42; conditioned media from either CHO-7W or CHO-CAB cells
  reduction of secreted levels of Aβ42: 66.9±2.6%
